These results are taken from US4447610A, “10-Substituted 5-cyanomethylene-dibenzo[A,B]-cycloheptenes, their preparations, and therapeutic agents containing these compounds” (BASF Aktiengesellschaft, priority 1980, dated 1984).

The structures appear in SMILES notation.

Series [1] has as its system tryptamine-induced clonic front paw movements. Nature of the series: Antitryptamine action: inhibition of tryptamine-induced front paw movements. In kind it is in vivo, rats. To be noted: for ED50: Rattus norvegicus, ip, rats, intraperitoneal, 30 min before tryptamine.HCl 16 mg/kg i.v., read-out: Antitryptamine action ED 50%; for Antitryptamine action R.A. (relative activity): clozapine = 1.00. The procedure:
3. Antitryptamine action Tryptamine.HCl (16 mg/kg administered intravenously) regularly causes the following symptoms in rats: clonic front paw movements, back-arching and retropulsion, as well as mandibular movements (Tedeschi et al., J. Pharmacol. Exp. Ther. 126 (1959), 223). The test substances are administered intraperitoneally 30 minutes before the tryptamine. […] The mean inhibitory dose (ED 50%) is determined, by means of Probit analysis, as the dose which prevents the symptom in half the animals.

For series [2], the system named is tonic extensor reflex on the rabbit gastrocnemius. Nature of the series: Muscle-relaxing action: tonic extensor reflex on the rabbit gastrocnemius. The series is classed as in vivo. To be noted: for Muscle relaxation R.A. (relative activity): clozapine = 1.00; for muscle-relaxing properties (in words): rabbit, in vivo. The source says: 2. Muscle-relaxing action The measurement is based on quantifying the tonic extensor reflex on the rabbit gastrocnemius (Teschendorf et al., Arch. Pharmacol. exp. Path. 266 (1970), 462). The rabbit is fixed in a special apparatus which permits bending the paw at the talocalcanean joint in a defined and reproducible manner. As a result of this bending, a tonic extensor reflex is triggered in the […]. The electrical activity of the muscle during contraction is registered and the individual pulses are counted. The extension (duration 5 s) is repeated at intervals of one minute. After a constant number of pulses has been reached (constituting the control value), the test substance is administered intravenously. The number of pulses after administration is related to the previous value. For each dose investigated, 4-6 animals are used. The ED 50% is the dose which reduces the muscle activity to half, based on the initial value.

A further series can be described thus: Acute toxicity. The note with it: mouse, in vivo, ip; mice, intraperitoneal; read-out: Toxicity LD 50. As for the experimental part:
Groups of 5-10 female NMRI mice are given the compounds intraperitoneally. The LD 50 is determined as the dose after which 50% of the treated animals die.

For the next series, the system named is death from physostigmine. Nature of the series: Anticholinergic action: protection against death from physostigmine (antiphysostigmine test). In kind it is in vivo, female NMRI mice. To be noted: Mus musculus; mice, oral, 30 min before physostigmine 0.825 mg/kg s.c.; read-out: Anticholinergic action ED 50%. The procedure:
4. Anticholinergic action
Groups of 10 female NMRI mice are given physostigmine subcutaneously, at a lethal dose (0.825 mg/kg). The test substances are administered orally 30 minutes before the administration of physostigmine.
The ED 50% is determined as the dose of compound which protects 50% of the animals against death from physostigmine.

Series [3] relates to orientation hypermotility. Nature of the series: Sedative action: decrease in orientation hypermotility of mice. In kind it is in vivo, female NMRI mice. The note with it: for ED50: Mus musculus, 0.5 h, mice, oral, 30 min after administration, measured for 30 min, read-out: Sedative action ED 50%; for Sedative action R.A. (relative activity): clozapine = 1.00; for sedative-hypnotic effects (in words): compared with clozapine and perlapine. The procedure:
4-8 groups of 3 female NMRI mice are given the compound orally. The orientation hypermotility induced by a new environment is determined photoelectrically, 30 minutes after administration of the compound, for a period of 30 minutes.
The ED50% is the dose which produces a decrease in orientation hypermotility by 50%, compared to control animals treated with placebo.

As for `CCN1CCN(C2=Cc3ccccc3C(=CC#N)c3ccccc32)CC1` (mixture of isomers) [Example 5, cis,trans-5-Cyanomethylene-10-(4-ethyl-piperazin-1-yl)-dibenzo[a,d]-cycloheptene], in series [1], the ED50 was determined as 18.6 mg/kg and the “Antitryptamine action R.A. (relative activity)” value amounted to 0.27. For the same molecule, the “Muscle relaxation R.A. (relative activity)” value in series [2] worked out at 3.54. The LD50 in the series “Acute toxicity” turned out to be 287 mg/kg. Besides, in the series with death from physostigmine, the ED50 is > 21.5 mg/kg. In addition, in series [3], the ED50 was 1.38 mg/kg and the “Sedative action R.A. (relative activity)” value is 3.43.
For the molecule `N#CC=C1c2ccccc2C=C(N2CCN(CCO)CC2)c2ccccc21` (mixture of isomers) [Example 7, cis,trans-5-Cyanomethylene-10-(N-β-hydroxyethyl-piperazin-1-yl)-dibenzo[a,d]-cycloheptene.1/2 H2 O], the “Muscle relaxation R.A. (relative activity)” value in series [2] amounted to 3.54. The LD50 in “Acute toxicity” is > 100 mg/kg. The values for the ED50 (in the series on death from physostigmine; in series [3]) were > 21.5 mg/kg and 0.97 mg/kg, respectively. Besides, the “Sedative action R.A. (relative activity)” value in series [3] is on record as 4.89.
For the molecule `C[N+]1([O-])CCN(C2=Cc3ccccc3C(=CC#N)c3ccccc32)CC1` (mixture of isomers) [Example 12, cis,trans-5-Cyanomethylene-10-(4-methyl-4-oxy-piperazin-1-yl)-dibenzo[a,d]-cycloheptene.21/2 H2 O], in series [1], the ED50 stood at 12.5 mg/kg and the “Antitryptamine action R.A. (relative activity)” value stood at 0.40. In addition, the “Muscle relaxation R.A. (relative activity)” value in series [2] was 0.46. In addition, the LD50 in the series “Acute toxicity” was > 100 mg/kg. The ED50 in the series with death from physostigmine is > 21.5 mg/kg. Further, in series [3], the ED50 amounted to 1.4 mg/kg and the “Sedative action R.A. (relative activity)” value came out at 3.39.
Turning to `CN1CCN(C2=Nc3cc(Cl)ccc3Nc3ccccc32)CC1` [Clozapine, reference compound], the ED50 worked out at 5 mg/kg in series [1] and 14.1 mg/kg in the series on death from physostigmine. Also, the “Antitryptamine action R.A. (relative activity)” value in series [1] was 1.00. Moreover, in series [3], the “Sedative action R.A. (relative activity)” value is listed as 1.00.
Regarding `CN1CCN(C2=Cc3ccccc3C(=CC#N)c3ccccc32)CC1` [Example 1, cis- and trans-5-Cyanomethylene-10-(4-methyl-piperazin-1-yl)-dibenzo[a,d]-cycloheptene], in series [2], the “Muscle relaxation R.A. (relative activity)” value is given as 7.19. Moreover, in “Acute toxicity”, the LD50 amounted to 324 mg/kg. Also, the ED50 in the series on death from physostigmine was > 10 mg/kg. In series [3], the ED50 is 0.96 mg/kg and the “Sedative action R.A. (relative activity)” value came out at 4.94.
Take `CN1CCN(C2=Cc3ccccc3/C(=C/C#N)c3ccccc32)CC1` [Example 1a]: in series [1], the ED50 was 8.6 mg/kg and the “Antitryptamine action R.A. (relative activity)” value is given as 0.58. For the same molecule, in series [2], the “muscle-relaxing properties (in words)” value is listed as “particularly pronounced” and the “Muscle relaxation R.A. (relative activity)” value was found to be 54.12. Further, the ED50 with death from physostigmine was > 10 mg/kg. Further, in series [3], the ED50 came to 0.8 mg/kg, the “sedative-hypnotic effects (in words)” value is “particularly pronounced” and the “Sedative action R.A. (relative activity)” value is recorded as 5.92.
For the molecule `CN1CCN(C2=Cc3cc(Cl)ccc3C(=CC#N)c3ccccc32)CC1` [Example 4, cis- and trans-2-Chloro-5-cyanomethylene-10-(4-methylpiperazin-1-yl)-dibenzo[a,d]-cycloheptene], the “Muscle relaxation R.A. (relative activity)” value in series [2] is listed as 10.00. Also, the ED50 with death from physostigmine is > 21.5 mg/kg. In series [3], the ED50 worked out at 2 mg/kg and the “Sedative action R.A. (relative activity)” value was 2.37.
Turning to `CN1CCN(C2=Cc3cc(Cl)ccc3/C(=C/C#N)c3ccccc32)CC1` [Example 4a, cis-5-cyanomethylene-2-chloro-10-(4-methyl-piperazin-1-yl)-dibenzo[a,d]-cycloheptene], in series [1], the ED50 is 0.7 mg/kg and the “Antitryptamine action R.A. (relative activity)” value is on record as 7.14. The “antimonaminergic action, tryptamine antagonism (in words)” value in series [1] (compared with reference substances) is “markedly more pronounced”. For the same molecule, in series [2], the “muscle-relaxing properties (in words)” value is recorded as “particularly pronounced” and the “Muscle relaxation R.A. (relative activity)” value is reported as 10.00. In addition, the ED50 in the series on death from physostigmine was > 21.5 mg/kg. For the same molecule, in series [3], the ED50 stood at 0.44 mg/kg, the “sedative-hypnotic effects (in words)” value is reported as “particularly pronounced” and the “Sedative action R.A. (relative activity)” value came out at 10.77.
Turning to `CCN1CCN(C2=Cc3ccccc3/C(=C/C#N)c3ccccc32)CC1` [Example 5a, cis-5-cyanomethylene-10-(4-ethyl-piperazin-1-yl)-dibenzo[a,d]-cycloheptene], in series [1], the ED50 came out at 11.2 mg/kg and the “Antitryptamine action R.A. (relative activity)” value is on record as 0.45. Further, the “Muscle relaxation R.A. (relative activity)” value in series [2] amounted to 4.60. The LD50 in the series “Acute toxicity” is > 100 mg/kg. Besides, the ED50 with death from physostigmine was > 21.5 mg/kg. Further, in series [3], the ED50 is 1 mg/kg and the “Sedative action R.A. (relative activity)” value was determined as 4.74.
On to `CN1CCN(C2=Nc3ccccc3Cc3ccccc32)CC1` [Perlapine, reference compound], for which, in series [1], the ED50 amounted to 4.1 mg/kg and the “Antitryptamine action R.A. (relative activity)” value worked out at 1.22. The ED50 in the series on death from physostigmine was > 21.5 mg/kg.
